Laboratory results reported in patent US8802597B2, “Herbicidal pyrimidines” (E I du Pont de Nemours and Company, priority 2003, dated 2014).
Where two headings read alike, the source gives them in different places.

Assays:
[1] = tested on: canarygrass (Phalaris minor); assay: Test C postemergence; assay type: in vivo
Outline: (§1)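 We sprayed seeded pots preemergence and 2–18 cm seedlings postemergence with test chemicals in a non-phytotoxic solvent mixture including surfactant. Greenhouse plants were visually compared with untreated controls at 12 to 14 days and scored 0 (no effect) to 100 (complete control).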

[2] = tested on: Italian ryegrass (Lolium multiflorum); assay: Test C postemergence; assay type: in vivo
Outline: as §1

[3] = tested on: downy brome (Bromus tectorum); assay: Test C postemergence; assay type: in vivo
Outline: as §1

wild oat (Avena fatua) = assay: Test C postemergence; assay type: in vivo
Outline: as §1

[4] = tested on: blackgrass (Alopecurus myosuroides); assay: Test C postemergence; assay type: in vivo
Outline: as §1

[5] = tested on: wheat (Triticum aestivum); assay: Test C postemergence; assay type: in vivo
Outline: as §1

[6] = tested on: green foxtail (Setaria viridis); assay: Test C postemergence; assay type: in vivo
Outline: as §1

[7] = tested on: winter barley (Hordeum vulgare); assay: Test C postemergence; assay type: in vivo
Outline: as §1

[8] = tested on: windgrass (Apera spica-venti); assay: Test C postemergence; assay type: in vivo
Outline: as §1

[9] = tested on: crabgrass (Digitaria sanguinalis); assay: Test C pre/postemergence; assay type: in vivo; conditions: Digitaria sanguinalis; for pest or weed control at 16 g/ha: 16 g ai/ha; for pest or weed control at 31 g/ha: 31 g ai/ha; for pest or weed control at 62 g/ha: 62 g ai/ha; for pest or weed control at 125 g/ha: 125 g ai/ha
Outline: as §1

[10] = tested on: yellow nutsedge (Cyperus esculentus); assay: Test C pre/postemergence; assay type: in vivo; conditions: Cyperus; for pest or weed control at 16 g/ha: 16 g ai/ha; for pest or weed control at 31 g/ha: 31 g ai/ha; for pest or weed control at 62 g/ha: 62 g ai/ha
Outline: as §1

soybean (Glycine max) = assay: Test C pre/postemergence; assay type: in vivo; conditions: Glycine max; for plant injury at 16 g/ha: 16 g ai/ha; for plant injury at 31 g/ha: 31 g ai/ha; for plant injury at 62 g/ha: 62 g ai/ha
Outline: as §1

[11] = post-emergence, Postemergence, read-out: Plant response rating (scale of 0 to 100), Crabgrass
[12] = pre-emergence, Preemergence, scale 0 to 100, 0 no effect, 100 complete control, read-out: Plant response rating, Crabgrass
[13] = post-emergence, Postemergence, read-out: Plant response rating (scale of 0 to 100), Nutsedge, Yellow
[14] = pre-emergence, Preemergence, scale 0 to 100, 0 no effect, 100 complete control, read-out: Plant response rating, Nutsedge, Yellow
[15] = post-emergence, Postemergence, read-out: Plant response rating (scale of 0 to 100), Soybean
[16] = pre-emergence, Preemergence, scale 0 to 100, 0 no effect, 100 complete control, read-out: Plant response rating, Soybean

For `Nc1nc(-c2ccc(Cl)cc2)nc(C(=O)O)c1Cl` [Compound 65, 6-amino-5-chloro-2-(4-chlorophenyl)-4-pyrimidinecarboxylic acid], the melting point was 158 to 160 °C, the “Plant response rating (scale of 0 to 100), Canarygrass” value (from here on “Plant response rating … Canarygrass”) ([1]; 16 g ai/ha) was 30 and the “Plant response rating … Canarygrass” value ([1]; 31 g ai/ha) was 30. The “Plant response rating … Canarygrass” value ([1]; 62 g ai/ha) was 35, the pest or weed control at 125 g/ha ([1]; Phalaris minor, post-emergence, 125 g ai/ha, scale 0 to 100 (0 no effect, 100 complete control), read-out: Canarygrass plant response rating) was 45% and the “Plant response rating (scale of 0 to 100), Ryegrass, Italian” value (from here on “Plant response rating … Italian”) ([2]; 16 g ai/ha) was 10. For the same compound, the “Plant response rating … Italian” value ([2]; 31 g ai/ha) was 50, the “Plant response rating … Italian” value ([2]; 62 g ai/ha) was 55 and the pest or weed control at 125 g/ha ([2]; Lolium multiflorum, post-emergence, 125 g ai/ha, scale 0 to 100 (0 no effect, 100 complete control), read-out: Ryegrass, Italian plant response rating) was 60%. For the same compound, the “Plant response rating (scale of 0 to 100), Bromegrass, Downy” value (from here on “Plant response rating … Downy”) ([3]; 16 g ai/ha) was 40, the “Plant response rating … Downy” value ([3]; 31 g ai/ha) was 50 and the “Plant response rating … Downy” value ([3]; 62 g ai/ha) was 50. The pest or weed control at 125 g/ha ([3]; Bromus tectorum, post-emergence, 125 g ai/ha, scale 0 to 100 (0 no effect, 100 complete control), read-out: Bromegrass, Downy plant response rating) was 55%, the “Plant response rating (scale of 0 to 100), Oat, Wild” value (“Plant response rating … Wild” below) (wild oat (Avena fatua); 16 g ai/ha) was 5 and the “Plant response rating … Wild” value (wild oat (Avena fatua); 31 g ai/ha) was 15. For the same compound, the “Plant response rating … Wild” value (wild oat (Avena fatua); 62 g ai/ha) was 20, the pest or weed control at 125 g/ha (wild oat (Avena fatua); Avena fatua, post-emergence, 125 g ai/ha, scale 0 to 100 (0 no effect, 100 complete control), read-out: Oat, Wild plant response rating) was 40% and the “Plant response rating (scale of 0 to 100), Blackgrass” value (“Plant response rating … Blackgrass” below) ([4]; 16 g ai/ha) was 50. The “Plant response rating … Blackgrass” value ([4]; 31 g ai/ha) was 60, the “Plant response rating … Blackgrass” value ([4]; 62 g ai/ha) was 65 and the pest or weed control at 125 g/ha ([4]; Alopecurus myosuroides, post-emergence, 125 g ai/ha, scale 0 to 100 (0 no effect, 100 complete control), read-out: Blackgrass plant response rating) was 65%. For the same compound, the “Plant response rating (scale of 0 to 100), Wheat” value (“Plant response rating … Wheat” below) ([5]; 16 g ai/ha) was 40, the “Plant response rating … Wheat” value ([5]; 31 g ai/ha) was 40 and the “Plant response rating … Wheat” value ([5]; 62 g ai/ha) was 45. For the same compound, the plant injury at 125 g/ha ([5]; Triticum aestivum, post-emergence, 125 g ai/ha, scale 0 to 100 (0 no effect, 100 complete control), read-out: Wheat plant response rating) was 45%, the “Plant response rating (scale of 0 to 100), Foxtail, Green” value (shortened to “Plant response rating … Green”) ([6]; 16 g ai/ha) was 50 and the “Plant response rating … Green” value ([6]; 31 g ai/ha) was 55. The “Plant response rating … Green” value ([6]; 62 g ai/ha) was 60, the pest or weed control at 125 g/ha ([6]; Setaria viridis, post-emergence, 125 g ai/ha, scale 0 to 100 (0 no effect, 100 complete control), read-out: Foxtail, Green plant response rating) was 70% and the “Plant response rating (scale of 0 to 100), Barley” value ([7]; 16 g ai/ha) was 40. For the same compound, the “Plant response rating (scale of 0 to 100), Barley” value ([7]; 31 g ai/ha) was 40, the plant injury at 62 g/ha ([7]; Hordeum vulgare, post-emergence, 62 g ai/ha, scale 0 to 100 (0 no effect, 100 complete control), read-out: Barley plant response rating) was 50% and the plant injury at 125 g/ha ([7]; Hordeum vulgare, post-emergence, 125 g ai/ha, scale 0 to 100 (0 no effect, 100 complete control), read-out: Barley plant response rating) was 50%. For the same compound, the “Plant response rating (scale of 0 to 100), Windgrass” value (shortened to “Plant response rating … Windgrass”) ([8]; 16 g ai/ha) was 50, the “Plant response rating … Windgrass” value ([8]; 31 g ai/ha) was 60 and the “Plant response rating … Windgrass” value ([8]; 62 g ai/ha) was 70. The pest or weed control at 125 g/ha ([8]; Apera spica-venti, post-emergence, 125 g ai/ha, scale 0 to 100 (0 no effect, 100 complete control), read-out: Windgrass plant response rating) was 70%, the pest or weed control at 16 g/ha [9, 11] was 80% and the pest or weed control at 31 g/ha [9, 11] was 80%. For the same compound, the pest or weed control at 62 g/ha [9, 11] was 90%, the pest or weed control at 125 g/ha ([9]; post-emergence, Postemergence, scale 0 to 100 (0 no effect, 100 complete control), read-out: Crabgrass plant response rating) was 90% and the pest or weed control at 16 g/ha [9, 12] was 0%. For the same compound, the pest or weed control at 31 g/ha [9, 12] was 20%, the pest or weed control at 62 g/ha [9, 12] was 70% and the pest or weed control at 125 g/ha ([9]; pre-emergence, Preemergence, scale 0 to 100, read-out: Plant response rating, Crabgrass) was 80%. For the same compound, the pest or weed control at 16 g/ha [10, 13] was 0%, the pest or weed control at 31 g/ha [10, 13] was 0% and the pest or weed control at 62 g/ha [10, 13] was 20%. For the same compound, the pest or weed control at 125 g/ha ([10]; post-emergence, Postemergence, 125 g ai/ha, scale 0 to 100 (0 no effect, 100 complete control), read-out: Nutsedge, Yellow plant response rating) was 50%, the pest or weed control at 16 g/ha [10, 14] was 0% and the pest or weed control at 31 g/ha [10, 14] was 0%. The pest or weed control at 62 g/ha [10, 14] was 30%, the plant injury at 16 g/ha (soybean (Glycine max); [15]) was 100% and the plant injury at 31 g/ha (soybean (Glycine max); [15]) was 100%. For the same compound, the plant injury at 62 g/ha (soybean (Glycine max); [15]) was 100%, the plant injury at 125 g/ha (soybean (Glycine max); post-emergence, Postemergence, 125 g ai/ha, scale 0 to 100 (0 no effect, 100 complete control), read-out: Soybean plant response rating) was 100% and the plant injury at 16 g/ha (soybean (Glycine max); [16]) was 85%. It also gave a plant injury at 31 g/ha (soybean (Glycine max); [16]) of 95% and a plant injury at 62 g/ha (soybean (Glycine max); [16]) of 95%.
